Results as given in patent US20160102058A1, “FLUORO-PERHEXILINE COMPOUNDS AND THEIR THERAPEUTIC USE” (THE UNIVERSITY COURT OF THE UNIVERSITY OF ABERDEEN, priority 2013, published 2016).
One block for each molecule: values may come before it.

What was measured:
[1] = cited from earlier work
[2] = Rat liver microsomal (RLM) stability assay; assay type: in vitro ADME; settings: both sexes, pH 7.4, rat liver microsomes, 3 μM test compound
Procedure: (§1) The metabolic stability of fluoroperhexiline derivatives was measured by determination of the rate of compound disappearance when incubated in the presence of both human and rat liver microsomes. Liver microsomes are prepared from the endoplasmic reticulum of hepatocytes and are the primary source of the most important enzymes (cytochrome P450) involved in drug metabolism. Study of drug stability in the presence of liver microsomes is accepted as a valuable model permitting rapid prediction of in vivo drug stability.
(§2) Human and rat liver microsomes were obtained from a commercial source. Test compounds (3 μM) were incubated with pooled liver microsomes (male and female). Samples were incubated for a 45 minute period and removed at 5 time points and test compounds were analysed by LC-MS/MS.
(§3) Microsomes (final protein concentration 0.5 mg/mL), 0.1 M phosphate buffer pH 7.4, and test compound (final concentration 3 μM; diluted from 10 mM stock solution to give a final DMSO concentration of 0.25%) were incubated at 37° C. prior to the addition of NADPH (final concentration 1 mM) to initiate the reaction. The final incubation volume was 25 μL. A control incubation was included for each compound tested, where 0.1 M phosphate buffer pH 7.4 was added instead of NADPH. The control compounds testosterone and 7-hydroxycoumarin were included in each experiment and all incubations were performed singularly for each compound.
(§4) Each compound was incubated for 0, 5, 15, 30, and 45 minutes. The control (minus NADPH) was incubated for 45 minutes only. The reactions were stopped by the addition of 50 μL methanol containing internal standard at the appropriate time points. The incubation plates were centrifuged at 2500 rpm for 20 minutes at 4° C. to precipitate the protein.
(§5) Following protein precipitation, the sample supernatants were combined in cassettes of up to 4 compounds and analysed using standard LC-MS/MS conditions.
(§6) From a plot of the natural logarithm of the peak area ratio (i.e., the ratio of compound peak area:internal standard peak area) against time, the gradient of the line was determined. Subsequently, half-life and intrinsic clearance were calculated using the equations below:
(§7) Eliminated Rate Constant (k)=(−Gradient).
(§8) Half-Life (t1/2) (min)=0.063/k.
(§9) Intrinsic Clearance (CLint) […]=(V×0.693)/t1/2. • wherein V=Incubation Volume (μL/mg microsomal protein).

CYP2D6 = target: T1, CYP2D6 (Homo sapiens, UniProt P10635); experiment: Cytochrome P450 2D6 reaction phenotyping (Bactosomes); assay type: in vitro ADME
T1 construct: purchased Cypex Ltd; host or cells: bacterial membranes (Bactosomes)
Procedure: The stability of fluoroperhexiline derivatives towards CYP2D6-mediated metabolism was measured by determination of the rate of compound disappearance when incubated in the presence CYP2D6 recombinant isoform expression systems (Bactosomes™). The percentage of parent compound remaining at each time point (following correction for any loss in the incubations with the control bactosomes) is calculated. cDNA expressed human CYP450 enzyme preparations co-expressed with human NADPH cytochrome P450 reductase (Bactosomes™) are supplied by Cypex Ltd. Bactosomes™ are stored at −80° C. prior to use. […] Incubations are also performed using control bactosomes (no P450 enzymes present) to reveal any non-enzymatic degradation. The final incubation volume is 25 μL. A compound known to be metabolised specifically by CYP2D6 isoform is used as a control compound. Each compound is incubated singly for 0, 5, 15, 30 and 45 min with each isoform. The reactions are stopped by the addition of 50 μL methanol containing internal standard at the appropriate time points. The incubation plates are centrifuged at 2500 rpm for 20 min at 4° C. to precipitate the protein. Following protein precipitation, the sample supernatants are combined in cassettes of up to four compounds and analysed using Cyprotex generic LC-MS/MS conditions. The natural logarithm of the peak area ratio (which has been corrected for any loss in the incubations with the control bactosomes) is plotted against time and the gradient of the line determined. Elimination Rate Constant (k)=(−Gradient).

[3] = Human liver microsomal (HLM) stability assay; assay type: in vitro ADME
Procedure: as §1, §2, §3, §4, §5, §6, §7, §8, §9

T1 sequence (P10635 whole entry): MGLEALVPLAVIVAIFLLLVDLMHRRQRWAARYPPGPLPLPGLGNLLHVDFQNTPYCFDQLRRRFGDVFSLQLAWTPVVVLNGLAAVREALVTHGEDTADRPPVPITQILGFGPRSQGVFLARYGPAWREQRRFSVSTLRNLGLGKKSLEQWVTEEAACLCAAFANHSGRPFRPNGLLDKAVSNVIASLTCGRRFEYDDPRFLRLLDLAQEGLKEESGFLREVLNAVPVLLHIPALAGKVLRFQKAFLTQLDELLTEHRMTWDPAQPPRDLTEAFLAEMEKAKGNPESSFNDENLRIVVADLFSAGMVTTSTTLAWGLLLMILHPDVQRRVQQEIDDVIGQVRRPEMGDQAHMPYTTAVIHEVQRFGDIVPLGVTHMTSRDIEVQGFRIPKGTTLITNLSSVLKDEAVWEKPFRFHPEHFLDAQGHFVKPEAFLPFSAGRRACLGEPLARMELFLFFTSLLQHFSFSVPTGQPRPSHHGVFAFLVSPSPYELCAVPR

Structure (SMILES): O[C@H]1CC[C@@H](C(CC2CCCCN2)C2CCCCC2)CC1 (relative stereo) [cis-OH-perhexiline, cis-4-[1-(cyclohexyl)-2-(2-piperidinyl)ethyl]cyclohexanol]
plasma AUC of cis-OH-perhexiline after (−)-perhexiline compared with (+)-perhexiline ([1]; plasma): 28 fold

Structure (SMILES): C1CCC(C(CC2CCCCN2)C2CCCCC2)CC1 (single isomer, unassigned; (+)) [(+)-perhexiline]
ratio of systemic exposure of (+)- to (−)-perhexiline, extensive metabolisers ([1]; EM): 1.5
ratio of systemic exposure of (+)- to (−)-perhexiline, poor metabolisers ([1]; PM): 2.3
plasma AUC, (+)-perhexiline relative to (−)-perhexiline ([1]; plasma): 2.5 fold

microsomal CLint at 3 μM ([2]; read-out: CLint (μL/min/mg protein) RLM): 0.8 µL/min/mg
half-life at 3 μM ([2]; read-out: T½ (min) RLM): 1650 min
half-life at 5 μM (CYP2D6; human, pH 7.4, recombinant CYP2D6 Bactosomes, 5 μM test compound, read-out: T½): 2.52 h
microsomal CLint at 3 μM ([3]; both sexes, pH 7.4, human liver microsomes, 3 μM test compound, read-out: CLint (μL/min/mg protein) HLM): 0.3 µL/min/mg
half-life at 3 μM ([3]; both sexes, pH 7.4, human liver microsomes, 3 μM test compound, read-out: T½ (min) HLM): 4210 min
Structure (SMILES): FC1(F)CCC(C(CC2CCCCN2)C2CCC(F)(F)CC2)CC1 (centres unmarked) [FPER-002, 2-(2,2-Bis(4,4-Difluorocyclohexyl)ethyl)piperidine]
stability towards CYP2D6 compared with perhexiline (in words) (CYP2D6; versus perhexiline): substantial increase in stability towards CYP2D6
metabolic stability compared with perhexiline (in words) ([3]; human and rat liver microsomes, versus perhexiline): substantial increase in metabolic stability
